EP0013784B1, “C-Substituted naphthalenemonosulfonic ureides, process for their preparation and pharmaceutical compositions containing them” (AMERICAN CYANAMID COMPANY, priority 1979, dated 1980)
Where “and” joins values, the source holds several entries; their conditions need not be identical. Equal values may be shown once. Where a name gives a salt, the structure may show the parent alone. Read-outs that look alike come from different tables or passages of the source.

How the values were obtained:
[1] = biological target: T1, human skin fibroblast collagenase (Homo sapiens, UniProt P03956); assay: Collagenase Assay, Test Code 006 (degradation of 14C-labeled native collagen fibrils); assay type: biochemical; details: test conc.: 30 μg./ml.
T1 construct: endogenous in cells
T1 sequence (P03956 100-469): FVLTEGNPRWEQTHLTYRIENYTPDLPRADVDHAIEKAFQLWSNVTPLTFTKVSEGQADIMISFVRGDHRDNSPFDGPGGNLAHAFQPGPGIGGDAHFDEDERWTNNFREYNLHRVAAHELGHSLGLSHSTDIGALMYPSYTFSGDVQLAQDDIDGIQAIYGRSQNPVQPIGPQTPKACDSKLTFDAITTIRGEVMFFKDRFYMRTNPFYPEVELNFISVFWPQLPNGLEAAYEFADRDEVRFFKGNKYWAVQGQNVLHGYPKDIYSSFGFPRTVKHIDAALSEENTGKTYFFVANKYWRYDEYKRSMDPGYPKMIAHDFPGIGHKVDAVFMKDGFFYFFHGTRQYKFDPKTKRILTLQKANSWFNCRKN
Description: (§1) An active inhibitor would inhibit the degradation of the collagen fibril; (iii) Leukocyte Neutral Proteases Inhibitor Assay - This test measures the ability of neutral proteases derived from human leukocytes to degrade radiolabeled proteoglycans entrapped in polyacrylamide beads.
Collagenase assays were performed by a modification of the method of Harper, et al., Biochem.,-10, 3035 (1971). In a typical assay (total volume of 0.45 ml.), 100 pI. of the activated enzyme was added to the ^14C-labeled collagen fibrils (250 µl.) followed by 100 pl. of 50 mM cacodylate, pH 7.4, containing 5 mM calcium chloride. After incubation at 37°C. for 16 hours, the tubes were centrifuged in a Beckman microfuge for five minutes at full speed. An aliquot (200 pl.) of the supernatant, representing collagenase digestion products of the fibril, was assayed for radioactivity. […] Appropriate blanks and trypsin controls were run in parallel.
The activities are expressed as % inhibition (lowering) of collagenase activity, i.e. based on the 0% value for the enzyme control.

[2] = system: Gingival Crevicular Fluid Collagenase; assay: Crevicular Fluid Assay (gingival crevicular fluid collagenase degrading 14C-collagen fibrils); assay type: biochemical, human; details: Diseased crevicular fluid + 30 mcg./ml. of compound; about 90 hours at 37°C.; diseased fluid alone 66 ± 9; p<0.0005
Excerpt: as §1
Since studies by Golub, et al., Dental Res., 55, 1049 (1976) have shown that the crevicular collagenase plays a major role in the degradation of collagen in periodontal tissue, the effect of test compounds on collagen degradation by this system was examined. A volunteer with diagnosed periodontal disease was used. […] After one minute, the filter paper strip was removed and the volume of the gingival crevicular fluid was measured with the aid of the Periotron (Harco Electronics, Ltd., Winnipeg, Canada). The volume of the fluid gathered from the crevice by the filter paper strip is translated by a unique transducer onto a digital readout screen. […] After reading on the meter, 1 µl. of trypsin (1.5 µg./ml.) was added to the filter paper (to activate any latent collagenase present) and after five minutes at room temperature 1 pI. of aprotonin was added. […] The tubes were centrifuged as described above and a 200 µl. aliquot of the clear supernatant was assayed for radioactivity.

[3] = system: neutral proteases derived from human leukocytes; assay: Leukocyte Neutral Proteases Inhibitor Assay (3H/35S labeled proteoglycans entrapped in polyacrylamide beads); assay type: biochemical; details: for Percent Inhibition of Neutral Protease Activity ^3H: 3H label; for Percent Inhibition of Neutral Protease Activity ^35S: 35S label
Description: as §1
This assay system contained (total volume of 1 ml.) 60 mM Tris-CI, pH 7.4; 2.5 mM calcium chloride; 2.5 mM magnesium chloride; 2 mg. (dry weight) of polyacrylamide beads entrapped with labeled proteoglycans, and an aliquot of the leukocyte neutral protease preparation. The reaction mixture was incubated at 37°C. for 30 minutes in a shaking water bath. The reaction was terminated by the addition of 0.2 mi. of 5% SDS in 5% HCI (v/v). After five minutes at room temperature the mixture was centrifuged and the clear supernatant (0.6 ml.) was assayed for radioactivity. To determine the effect of the test compounds on degradation of proteoglycans by neutral proteases, various concentrations of the compounds were added to the reaction mixture. Appropriate blanks were included.

[4] = system: fibroblast collagenase and leukocyte neutral protease; assay: Enzymatic Degradation of Collagen of Human Gingiva (hydroxyproline content of residual tissue); assay type: biochemical; details: 36 hours at 37°C., enzymes alone 102.3
Description: The test compounds are able to inhibit the degradation of collagen of gingival tissue. Dried pieces of human gingiva were incubated at 37°C. for 36 hours with fibroblast collagenase and leukocyte neutral protease in the presence of test compound (30 and 50 µg./ml.). Antibiotics were present to prevent bacterial growth. After incubation, the residual tissue was hydrolyzed in 6N hydrochloric acid and the hydroxy-proline content (collagen) was determined. When collagenase and neutral protease were added to human gingiva, approximately 100 µg of collagen/mg. dry tissue was digested. If the test compound was present, degradation of gingival collagen was inhibited.

[5] = system: collagenase; details: as reported in Thromb. Res. 1977, 10(4), 605-11; cited from earlier work
[6] = compound in distilled water, 16 hours at 37°C., repeat determinations
[7] = compound in distilled water, 16 hours at 37°C., repeat determinations, read-out: % Inhibition of Collagenase
[8] = DMA = Dimethylacetamide, read-out: % Inhibition of Collagenase (DMA)

O=C(Nc1cccc(C(=O)Nc2ccc(S(=O)(=O)O)c3cccc(O)c23)c1)Nc1cccc(C(=O)Nc2ccc(S(=O)(=O)O)c3cccc(O)c23)c1 [4,4'-[Ureylenebis(m-phenylenecarbonylimino)]bis-5-hydroxy-1-2-naphthalen,3sulfonic acid, disodium salt]
% Inhibition of Collagenase ([1]; compound in distilled water, 16 hours at 37°C., repeat determinations, disodium salt): 84% and 69% and 60% and 55%

O=C(Nc1cccc(C(=O)Nc2ccc3cc(S(=O)(=O)O)cc(O)c3c2)c1)Nc1cccc(C(=O)Nc2ccc3cc(S(=O)(=O)O)cc(O)c3c2)c1 [6,6'-[Ureylenebis(3,1-phenyl-enecarbonylimino)]bis[4-hydroxy] [6,6'-[Ureylenebis(m-phenylenecarbonylimino)]bis[4-hydroxy-2-naphthalenesulfonic acid]disodium salt]
% Inhibition of Collagenase [1, 6]: 92% and 69% | cpm Collagen Degraded/Unit Periotron Reading [2]: 16 ± 6 cpm | Percent Inhibition of Neutral Protease Activity ^3H ([3]; 0.5 mcg./ml.): 0% | Percent Inhibition of Neutral Protease Activity ^35S ([3]; 0.5 mcg./ml.): 0% | Percent Inhibition of Neutral Protease Activity ^3H ([3]; 1.0 mcg./ml.): 17% | Percent Inhibition of Neutral Protease Activity ^35S ([3]; 1.0 mcg./ml.): 31% | Percent Inhibition of Neutral Protease Activity ^3H ([3]; 2.0 mcg./ml.): 21% | Percent Inhibition of Neutral Protease Activity ^35S ([3]; 2.0 mcg./ml.): 37% | Percent Inhibition of Neutral Protease Activity ^3H ([3]; 5.0 mcg./ml.): 47% | Percent Inhibition of Neutral Protease Activity ^35S ([3]; 5.0 mcg./ml.): 74% | Percent Inhibition of Neutral Protease Activity ^3H ([3]; 10.0 mcg./ml.): 63% | Percent Inhibition of Neutral Protease Activity ^35S ([3]; 10.0 mcg./ml.): 91% | mcg. of Collagen degraded per mg. of dry gingiva ([4]; neutral proteases plus 30 mcg./ml. of compound): 60.4 mcg. per mg. of dry gingiva | mcg. of Collagen degraded per mg. of dry gingiva ([4]; neutral proteases plus 50 mcg./ml. of compound): 27.4 mcg. per mg. of dry gingiva

Cc1ccc(C(=O)Nc2ccc3cc(S(=O)(=O)O)cc(O)c3c2)cc1NC(=O)Nc1cc(C(=O)Nc2ccc3cc(S(=O)(=O)O)cc(O)c3c2)ccc1C [6,6'-[Ureylenebis(4-methyl-3,1-phenylene)carbonyliminolbis[4-hydroxy-2-naphthalenesulfonic acid]-disodium salt]
inhibition at 30 µg/mL [1, 7]: 73%

O=C(Nc1cccc(C(=O)Nc2ccc3cc(S(=O)(=O)O)cc(O)c3c2)c1)Nc1cccc(C(=O)Nc2ccc3cc(S(=O)(=O)O)cc(O)c3c2)c1 [6,6'-[Ureylenebis(m-phenylenecarbonylimino)]bis[4-hydroxy-2-naphthalenesulfonic acid]disodium salt]
inhibition at 30 µg/mL [1, 8]: 81%

O=C(Nc1ccc(C(=O)Nc2ccc3cc(S(=O)(=O)O)cc(O)c3c2)cc1)Nc1ccc(C(=O)Nc2ccc3cc(S(=O)(=O)O)cc(O)c3c2)cc1 [6,6'-[Ureylenebis(p-phenylenecarbonylimino)]bis[4-hydroxy-2-naphthalenesulfonic acid acid], disodium salt]
inhibition at 30 µg/mL [1, 8]: 96% | inhibition at 30 µg/mL [1, 7]: 86%

O=C(Nc1ccc(C(=O)Nc2ccc3cc(S(=O)(=O)O)cc(O)c3c2)cc1)Nc1ccc(C(=O)Nc2ccc3cc(S(=O)(=O)O)cc(O)c3c2)cc1 [6,6-'Ureylenebis(p-phenylenecarbonylimino)bis[4-hydroxy-2-naphthalenesulfonic acid]-tetrasodium salt]
% Inhibition of Collagenase [1, 6]: 92%

Cc1ccc(C(=O)Nc2ccc(S(=O)(=O)O)c3cc(S(=O)(=O)O)cc(S(=O)(=O)O)c23)cc1NC(=O)c1cccc(NC(=O)Nc2cccc(C(=O)Nc3cc(C(=O)Nc4ccc(S(=O)(=O)O)c5cc(S(=O)(=O)O)cc(S(=O)(=O)O)c45)ccc3C)c2)c1 [Suramin]
inhibition of the activity of collagenase [5]: not inhibiting the action of collagenase

Cc1cc(-c2ccc(/N=N/c3c(S(=O)(=O)O)cc4cc(S(=O)(=O)O)cc(N)c4c3O)c(C)c2)ccc1/N=N/c1c(S(=O)(=O)O)cc2cc(S(=O)(=O)O)cc(N)c2c1O [trypan blue]
inhibition of the activity of collagenase [5]: inhibiting the activity of collagenase, or a proteinase contaminant in the collagenase preparation
